Test results reported in PubChem BioAssay AID1918956 (Molecular Pharmacology Branch, DTP, NCI, 2023).
pIC50: −log10 of the molar value. Values joined by “and” are separate entries in the source; they are usually repeats but may differ in a detail not shown here. Equal entries are not always repeated. Values belong to the molecule of their own block, whether it stands above or below them.

System: OVCAR-5 complex spheroids, viability
Experiment: Anticancer human tumor OVCAR-5 cell line growth inhibition;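 note: spheroids exposed to agents for seven days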;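 for viability, T/C: 100% = DMSO vehicle control wells viability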
Conditions: for viability, T/C: stronger effect = lower value
Summary of the method: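 Drug combinations with the LSD1 inhibitor iadademstat tested on tumor cells co-cultured as spheroids with endothelial cells and mesenchymal stem cells. Concentrations descended in half-log increments from clinical Cmax or 10 microM.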

[1] = curve of first compound, second compound 0.1 µM
[2] = curve of first compound, second compound 0.316 µM
[3] = curve of first compound, second compound 1 µM
[4] = curve of first compound, second compound 3.16 µM
[5] = curve of first compound, second compound 10 µM
[6] = second compound 0.1 µM, first compound 0.000316 µM
[7] = second compound 0.1 µM, first compound 0.001 µM
[8] = second compound 0.1 µM, first compound 0.00316 µM
[9] = second compound 0.1 µM, first compound 0.01 µM
[10] = second compound 0.1 µM, first compound 0.0316 µM
[11] = second compound 0.1 µM, first compound 0.1 µM
[12] = second compound 0.316 µM, first compound 0.000316 µM
[13] = second compound 0.316 µM, first compound 0.001 µM
[14] = second compound 0.316 µM, first compound 0.00316 µM
[15] = second compound 0.316 µM, first compound 0.01 µM
[16] = second compound 0.316 µM, first compound 0.0316 µM
[17] = second compound 0.316 µM, first compound 0.1 µM
[18] = second compound 1 µM, first compound 0.000316 µM
[19] = second compound 1 µM, first compound 0.001 µM
[20] = second compound 1 µM, first compound 0.00316 µM
[21] = second compound 1 µM, first compound 0.01 µM
[22] = second compound 1 µM, first compound 0.0316 µM
[23] = second compound 1 µM, first compound 0.1 µM
[24] = second compound 3.16 µM, first compound 0.000316 µM
[25] = second compound 3.16 µM, first compound 0.001 µM
[26] = second compound 3.16 µM, first compound 0.00316 µM
[27] = second compound 3.16 µM, first compound 0.01 µM
[28] = second compound 3.16 µM, first compound 0.0316 µM
[29] = second compound 3.16 µM, first compound 0.1 µM
[30] = second compound 10 µM, first compound 0.000316 µM
[31] = second compound 10 µM, first compound 0.001 µM
[32] = second compound 10 µM, first compound 0.00316 µM
[33] = second compound 10 µM, first compound 0.01 µM
[34] = second compound 10 µM, first compound 0.0316 µM
[35] = second compound 10 µM, first compound 0.1 µM

SMILES: CC(C)CC(NC(=O)C(Cc1ccccc1)NC(=O)c1cnccn1)B(O)O (stereo not drawn) + NC1CCC(NC2CC2c2ccccc2)CC1
pIC50 [1]: 8.11 | pIC50 [2]: 8.07 | pIC50 [3]: 8.10 | pIC50 [4]: 8.13 | pIC50 [5]: 8.19 | viability, T/C [6]: 92% | viability, T/C [7]: 100% | viability, T/C [8]: 84.3% | viability, T/C [9]: 39.5% | viability, T/C [10]: 16.2% | viability, T/C [11]: 6.2% | viability, T/C [12]: 97.3% | viability, T/C [13]: 97.9% | viability, T/C [14]: 87.4% | viability, T/C [15]: 42.6% | viability, T/C [16]: 16.1% | viability, T/C [17]: 5.03% | viability, T/C [18]: 88.6% | viability, T/C [19]: 98.8% | viability, T/C [20]: 85.2% | viability, T/C [21]: 39.9% | viability, T/C [22]: 15.4% | viability, T/C [23]: 5.03% | viability, T/C [24]: 79.8% | viability, T/C [25]: 104% | viability, T/C [26]: 78.6% | viability, T/C [27]: 39% | viability, T/C [28]: 13.6% | viability, T/C [29]: 4.87% | viability, T/C [30]: 84.4% | viability, T/C [31]: 82.3% | viability, T/C [32]: 73.4% | viability, T/C [33]: 35.1% | viability, T/C [34]: 10.2% | viability, T/C [35]: 3.83%

SMILES: CCc1c2c(nc3ccc(O)cc13)-c1cc3c(c(=O)n1C2)COC(=O)[C@]3(O)CC + NC1CC1c1ccc(-c2cccc(O)c2)cc1
pIC50 [1]: > 9.02 | pIC50 [2]: > 9.02 | pIC50 [3]: > 9.02 | pIC50 [4]: > 9.02 | pIC50 [5]: > 9.02 | viability, T/C (second compound 0.1 µM, first compound 0.000949 µM): 33% | viability, T/C (second compound 0.1 µM, first compound 0.003 µM): 17.4% | viability, T/C (second compound 0.1 µM, first compound 0.00949 µM): 7.17% | viability, T/C (second compound 0.1 µM, first compound 0.03 µM): 2.96% | viability, T/C (second compound 0.1 µM, first compound 0.0949 µM): 0.9% | viability, T/C (second compound 0.1 µM, first compound 0.3 µM): 0.46% | viability, T/C (second compound 0.316 µM, first compound 0.000949 µM): 31.7% | viability, T/C (second compound 0.316 µM, first compound 0.003 µM): 18.4% | viability, T/C (second compound 0.316 µM, first compound 0.00949 µM): 7.68% | viability, T/C (second compound 0.316 µM, first compound 0.03 µM): 2.91% | viability, T/C (second compound 0.316 µM, first compound 0.0949 µM): 0.78% | viability, T/C (second compound 0.316 µM, first compound 0.3 µM): 0.44% | viability, T/C (second compound 1 µM, first compound 0.000949 µM): 31.3% | viability, T/C (second compound 1 µM, first compound 0.003 µM): 18% | viability, T/C (second compound 1 µM, first compound 0.00949 µM): 7.01% | viability, T/C (second compound 1 µM, first compound 0.03 µM): 3.01% | viability, T/C (second compound 1 µM, first compound 0.0949 µM): 0.61% | viability, T/C (second compound 1 µM, first compound 0.3 µM): 0.46% | viability, T/C (second compound 3.16 µM, first compound 0.000949 µM): 32.2% | viability, T/C (second compound 3.16 µM, first compound 0.003 µM): 18.7% | viability, T/C (second compound 3.16 µM, first compound 0.00949 µM): 8.72% | viability, T/C (second compound 3.16 µM, first compound 0.03 µM): 4.14% | viability, T/C (second compound 3.16 µM, first compound 0.0949 µM): 0.87% | viability, T/C (second compound 3.16 µM, first compound 0.3 µM): 0.58% | viability, T/C (second compound 10 µM, first compound 0.000949 µM): 34% | viability, T/C (second compound 10 µM, first compound 0.003 µM): 19.9% | viability, T/C (second compound 10 µM, first compound 0.00949 µM): 8.18% | viability, T/C (second compound 10 µM, first compound 0.03 µM): 4.37% | viability, T/C (second compound 10 µM, first compound 0.0949 µM): 0.68% | viability, T/C (second compound 10 µM, first compound 0.3 µM): 0.41%

pIC50 (compound alone, run of 11/29/2021): < 5.00
SMILES: NC1CCC(NC2CC2c2ccccc2)CC1 (stereo not drawn)
viability, T/C (compound 0.1 µM): 102% [middle of 25 runs] | viability, T/C (compound 0.316 µM): 119% and 98.5%

SMILES: CC(C)CC(NC(=O)CNC(=O)c1cc(Cl)ccc1Cl)B1OC(=O)CC(CC(=O)O)(C(=O)O)O1 (stereo not drawn) + NC1CCC(NC2CC2c2ccccc2)CC1
pIC50 [1]: < 7.00 | pIC50 [2]: < 7.00 | pIC50 [3]: < 7.00 | pIC50 [4]: < 7.00 | pIC50 [5]: < 7.00 | viability, T/C [6]: 96.8% | viability, T/C [7]: 95% | viability, T/C [8]: 108% | viability, T/C [9]: 91.5% | viability, T/C [10]: 89.7% | viability, T/C [11]: 71.8% | viability, T/C [12]: 97.5% | viability, T/C [13]: 112% | viability, T/C [14]: 113% | viability, T/C [15]: 83.6% | viability, T/C [16]: 85.2% | viability, T/C [17]: 70.8% | viability, T/C [18]: 103% | viability, T/C [19]: 93.7% | viability, T/C [20]: 110% | viability, T/C [21]: 95.1% | viability, T/C [22]: 80.7% | viability, T/C [23]: 71.4% | viability, T/C [24]: 101% | viability, T/C [25]: 103% | viability, T/C [26]: 95.6% | viability, T/C [27]: 76.5% | viability, T/C [28]: 77.7% | viability, T/C [29]: 64.6% | viability, T/C [30]: 98.1% | viability, T/C [31]: 79.8% | viability, T/C [32]: 89.1% | viability, T/C [33]: 86.7% | viability, T/C [34]: 76.5% | viability, T/C [35]: 56.6%
